Tested on: Cyp1a2 mRNA in liver
Test: Cyp1a2 gene expression in liver (real-time PCR)
Type: in vivo, female C57BL/6 mice
Conditions: dose metric Adm dose; 3 days after single oral dose
Description: (§1) Animals. Eight-week-old female C57BL/6 mice (Harlan laboratories, Venray, the Netherlands) were randomly assigned to treatment groups (six animals per group) and allowed to acclimate for 1.5 weeks. The animals were housed in groups in standard cages and conditions (23 ± 2°C, 50–60% relative humidity, 12-hr dark/light cycle) with free access to food and water. Mice received a single dose of test compound by oral gavage at a dosing volume of 10 mL/kg body weight (BW). Mice treated with corn oil vehicle (10 mL/kg BW) served as controls. For each congener, five different doses were administered, ranging from 0.5–100 μg/kg BW (TCDD) to 5,000–500,000 µg/kg BW (PCB-153). Detailed information on doses is provided in Supplemental Material, Table S1 (http://dx.doi.org/10.1289/ehp.1206336). On day 3 after dosing, animals were euthanized by CO2/O2 asphyxiation, and blood was immediately collected from the abdominal aorta. The liver, thymus, spleen, and adipose tissue were removed, weighed (liver, thymus, and spleen), snap frozen, and stored at –80°C. All animal treatments were performed with permission of the Animal Ethical Committee (DEC Utrecht) and performed according to the [Law on Animal Experiments (1977)]. Animals were treated humanely and with regard for alleviation of suffering.
(§2) RNA isolation and quantitative real-time polymerase chain reaction (PCR). Total RNA was isolated from liver and PBLs using a QIAGEN RNeasy kit (QIAGEN). Purity and concentration of the isolated RNA was determined by measuring the absorbance ratio at 260/280 nm and 230/260 nm with a Nanodrop 2000 spectrophotometer (Thermo Scientific, Asheville, NC, USA). RNA was reverse transcribed to complementary DNA (cDNA) using the iScript cDNA synthesis Kit (Bio-Rad, Veenendaal, the Netherlands). Quantitative real-time PCR analyses were performed using the iQ Real-Time PCR Detection System with SYBR green (Bio-Rad). Amplification reactions were set up with […] containing 12.5 μL iQ SYBR Green Supermix (Bio-rad), 0.5 μL distilled H2O, 1 μL (10 μM) forward primer, 1 μL (10 μM) reverse primer, and 10 μL first strand cDNA (10X diluted). Primer sequences were as follows: Cyp1a1: forward-5´-GGTTAACCATGACCGGGAACT-3´ and reverse-5´-TGCCCAAACCAAAGAGAGTGA-3´ ([Schulz et al. 2012]); Cyp1a2: forward-5´-ACATTCCCAAGGAGCGCTGTATCT-3´ and reverse-5´-GTCGATGGCCGAGTTGTTATTGGT-3´ ([Flaveny et al. 2010]); Cyp1b1: forward-5´-GTGGCTGCTCATCCTCTTTACC-3´ and reverse-5´-CCCACAACCTGGTCCAACTC-3´ ([Berge et al. 2004]); β-actin: forward-5´-ATGCTCCCCGGGCTGTAT-3´ and reverse-5´-CATAGGAGTCCTTCTGACCCATTC-3´ ([Schulz et al. 2012]). All primers were run through the National Center for Biotechnology Information Primer-BLAST database (http://www.ncbi.nlm.nih.gov/tools/primer-blast/) to confirm specificity and validate for optimal annealing temperature (60°C for all primers) and efficiency. The efficiency of all primer pairs was 98–102% (tested at 60°C). The following program was used for denaturation and amplification of cDNA: 3 min at 95°C, followed by 40 cycles of 15 sec at 95°C and 45 sec at 60°C. Gene expression for each sample was expressed as threshold cycle (Ct), normalized to the reference gene β-actin (ΔCt). We calculated fold induction relative to the control group.
Data analysis. We obtained concentration–response curves using a sigmoidal dose–response nonlinear regression curve fit with variable slope (GraphPad Prism 6.01; GraphPad Software Inc., San Diego, CA, USA):
In this Hill equation, y is the dependent variable (EROD activity or fold induction of mRNA levels), x the independent variable (administered or systemic dose), E0 is the estimated background response level, Emax is the maximum response, b is the estimated median effective concentration (EC50), and n is the shaping parameter of the Hill curve.
Using the congener-specific BMR20TCDD concentration, REPs were calculated relatively to TCDD: […]

Structure (SMILES) | BMR20TCDD Liver Cyp1a2 mRNA
Clc1cc2oc3c(Cl)c(Cl)c(Cl)cc3c2cc1Cl [Congener 4-PeCDF, 2,3,4,7,8-pentachlorodibenzofuran] | 8.83 µg/kg BW

Same assay, conditions: dose metric Syst adipose; 3 days after single oral dose

Structure (SMILES) | BMR20TCDD Liver Cyp1a2 mRNA
Clc1cc2oc3c(Cl)c(Cl)c(Cl)cc3c2cc1Cl [Congener 4-PeCDF, 2,3,4,7,8-pentachlorodibenzofuran] | 6.53 ng/g lipid

Same assay, conditions: dose metric Syst plasma; 3 days after single oral dose

Structure (SMILES) | BMR20TCDD Liver Cyp1a2 mRNA
Clc1cc2oc3c(Cl)c(Cl)c(Cl)cc3c2cc1Cl [Congener 4-PeCDF, 2,3,4,7,8-pentachlorodibenzofuran] | 8.01 ng/g lipid

Same assay, conditions: relative to TCDD; dose metric Adm dose (µg/kg BW)

Structure (SMILES) | REP Liver Cyp1a2 mRNA
Clc1cc2oc3c(Cl)c(Cl)c(Cl)cc3c2cc1Cl [Congener 4-PeCDF, 2,3,4,7,8-pentachlorodibenzofuran] | 0.05

Same assay, conditions: relative to TCDD; dose metric Syst adipose (ng/g lipid)

Structure (SMILES) | REP Liver Cyp1a2 mRNA
Clc1cc2oc3c(Cl)c(Cl)c(Cl)cc3c2cc1Cl [Congener 4-PeCDF, 2,3,4,7,8-pentachlorodibenzofuran] | 0.3

Same assay, conditions: relative to TCDD; dose metric Syst liver (ng/g lipid)

Structure (SMILES) | REP Liver Cyp1a2 mRNA
Clc1cc2oc3c(Cl)c(Cl)c(Cl)cc3c2cc1Cl [Congener 4-PeCDF, 2,3,4,7,8-pentachlorodibenzofuran] | 0.03

Same assay, conditions: relative to TCDD; dose metric Syst liver (ng/g liver)

Structure (SMILES) | REP Liver Cyp1a2 mRNA
Clc1cc2oc3c(Cl)c(Cl)c(Cl)cc3c2cc1Cl [Congener 4-PeCDF, 2,3,4,7,8-pentachlorodibenzofuran] | 0.04

Same assay, conditions: relative to TCDD; dose metric Syst plasma (ng/g lipid)

Structure (SMILES) | REP Liver Cyp1a2 mRNA
Clc1cc2oc3c(Cl)c(Cl)c(Cl)cc3c2cc1Cl [Congener 4-PeCDF, 2,3,4,7,8-pentachlorodibenzofuran] | 0.2

Tested on: Cyp1b1 mRNA in PBLs
Test: Cyp1b1 gene expression in peripheral blood lymphocytes
Type: in vivo, female C57BL/6 mice
Conditions: dose metric Adm dose; 3 days after single oral dose
Description: as §1
Plasma and PBL isolation. Blood from two mice was pooled (total volume of approximately 1.4 mL); plasma and PBLs were then isolated using Ficoll Paque gradient (GE Healthcare Europe, Diegem, Belgium). Plasma samples were stored at –80°C until compound analysis. Isolated lymphocytes were lysed with RLT buffer (QIAGEN, Venlo, the Netherlands) as described in the QIAGEN RNAeasy kit protocol and stored at –80°C until use.
as §2
Data analysis. We obtained concentration–response curves using a sigmoidal dose–response nonlinear regression curve fit with variable slope (GraphPad Prism 6.01; GraphPad Software Inc., San Diego, CA, USA): […]

Structure (SMILES) | BMR20TCDD PBLs Cyp1b1 mRNA
Clc1cc2oc3c(Cl)c(Cl)c(Cl)cc3c2cc1Cl [Congener 4-PeCDF, 2,3,4,7,8-pentachlorodibenzofuran] | 514 µg/kg BW

Same assay, conditions: dose metric Syst plasma; 3 days after single oral dose

Structure (SMILES) | BMR20TCDD PBLs Cyp1b1 mRNA
Clc1cc2oc3c(Cl)c(Cl)c(Cl)cc3c2cc1Cl [Congener 4-PeCDF, 2,3,4,7,8-pentachlorodibenzofuran] | 212 ng/g lipid

Same assay, conditions: relative to TCDD; dose metric Adm dose (µg/kg BW)

Structure (SMILES) | REP PBLs Cyp1b1 mRNA
Clc1cc2oc3c(Cl)c(Cl)c(Cl)cc3c2cc1Cl [Congener 4-PeCDF, 2,3,4,7,8-pentachlorodibenzofuran] | 0.04

Same assay, conditions: relative to TCDD; dose metric Syst plasma (ng/g lipid)

Structure (SMILES) | REP PBLs Cyp1b1 mRNA
Clc1cc2oc3c(Cl)c(Cl)c(Cl)cc3c2cc1Cl [Congener 4-PeCDF, 2,3,4,7,8-pentachlorodibenzofuran] | 0.3

Same assay, conditions: single oral dose, day 3

Structure (SMILES) | Effect on Cyp1b1 mRNA in PBLs
Clc1cc2oc3c(Cl)c(Cl)c(Cl)cc3c2cc1Cl [Congener 4-PeCDF, 2,3,4,7,8-pentachlorodibenzofuran] | dose-dependently induced
Clc1cc(Cl)c(-c2cc(Cl)c(Cl)cc2Cl)cc1Cl [PCB-153, 2,2´,4,4´,5,5´-hexachlorobiphenyl] | did not induce

From paper PMC3702004, “Comparison of Intake and Systemic Relative Effect Potencies of Dioxin-like Compounds in Female Mice after a Single Oral Dose” (Environmental Health Perspectives, 2013)
